Laboratory results reported in the Biogen ADME set (Fang et al. 2023).
In brackets after ≈: the same amount, converted by molar mass.

Details: for aqueous solubility: pH 6.8

Compound | intrinsic clearance, human liver microsomes [mL/min/kg] | intrinsic clearance, rat liver microsomes [mL/min/kg] | aqueous solubility [µg/mL] | MDR1-MDCK efflux ratio | fraction unbound, human plasma | fraction unbound, rat plasma
C=CCn1cc(CNCc2csc3ccc(Cl)cc23)c(C)n1 | 347 | 3200 | 21.4 (≈ 64.5 µM) | – | – | –
O=C(NCC1(c2ccccc2)CC1)c1cccnc1 | ≤ 4.74 | 231 | 41.2 (≈ 163 µM) | 0.757 | – | –
CCN(C/C=C\c1ccc(C2CCCCC2)c(Cl)c1)C1CCCCC1 | 47.5 | 591 | 6.6 (≈ 18.3 µM) | – | 0.0014 | 0.00541
CN1CC(=O)N(CCOc2ccccc2)C1=O | – | – | 23.1 (≈ 98.4 µM) | – | – | –
Clc1ccc(CSc2nc(-c3ccccc3)cs2)cn1 | 221 | 2260 | – | – | – | –
CCC(C)(C)N1CCN(C(=O)NCCc2cc(C)no2)CC1 | ≤ 4.74 | 274 | – | 7.18 | – | –
N#CCN1CCC(CNC(=O)c2c(F)ccc(F)c2F)CC1 | 4.81 | 15.7 | – | 1.76 | – | –
CCC(=O)N(C)c1ccccc1C(=O)O | 23.7 | 1130 | 36.4 (≈ 176 µM) | 1.28 | – | –
Nc1nc(N)c2nc(-c3cccc(O)c3)c(-c3cccc(O)c3)nc2n1 | ≤ 4.74 | 115 | 2.1 (≈ 6.06 µM) | 2.78 | – | –
c1ccc(-c2n[nH]c(C3CCN(c4ccccn4)CC3)n2)cc1 | 15.8 | 440 | 34.4 (≈ 113 µM) | 0.974 | – | –
COC(=O)C1=NOC2(CCN(CCC(C)(C)C)CC2)C1 | 144 | 301 | – | 0.474 | – | –
N#Cc1cc(F)c(NS(=O)(=O)c2c[nH]c3cc(Cl)ccc23)cc1F | ≤ 4.74 | – | 66.1 (≈ 180 µM) | 2.57 | 0.0094 | 0.0056
CC(C)c1cc(C(C)C)c(CC(=O)NS(=O)(=O)Oc2c(C(C)C)cccc2C(C)C)c(C(C)C)c1 | 45.9 | 170 | – | 4.45 | – | –
Cc1ccc(-c2ccnc(N3C[C@@H](C)NC[C@@H]3C)n2)c(C)n1 | ≤ 4.74 | 78.7 | 25.9 (≈ 87.2 µM) | 25.7 | – | –
Cc1cnn(Cc2nc(Cn3cccn3)no2)c1 | ≤ 4.74 | ≤ 10.7 | 36 (≈ 147 µM) | 0.771 | – | –
COCCCNc1nnc(-c2ccncc2)s1 | 13.3 | 84.1 | – | 0.654 | – | –
Cc1cc(NC(=O)CN(C)CCOc2ccccc2)on1 | 166 | 622 | – | 0.516 | – | –
CN(C)c1cncc(-c2ccc(S(=O)(=O)N(C)C)cc2)n1 | 80.8 | 2430 | – | 0.61 | – | –
CCCNC(=O)NS(=O)(=O)c1ccc(Cl)cc1 | ≤ 4.74 | 15.2 | – | – | 0.0933 | 0.0425
CN1CCc2nc(NC(=O)c3ccc(Cl)s3)sc2C1 | 20 | 477 | 48.8 (≈ 155 µM) | 0.586 | – | –

Compound | intrinsic clearance, human liver microsomes [mL/min/kg] | intrinsic clearance, rat liver microsomes [mL/min/kg] | aqueous solubility [µg/mL] | MDR1-MDCK efflux ratio | fraction unbound, human plasma | fraction unbound, rat plasma
COc1cccc(-n2c(S)nnc2COc2cccc3ccccc23)c1 | – | – | 0.26 (≈ 0.715 µM) | 1.07 | – | –
CN(C(=O)CNC(=O)c1ccccc1OCC(=O)Nc1ccc(Br)cc1)c1ccccc1 | – | – | 0.35 (≈ 0.705 µM) | 3.43 | – | –
COc1ccncc1NCc1ccc2c(c1)OCCO2 | 17.8 | 570 | 31.1 (≈ 114 µM) | 0.666 | – | –
Cc1cn2nc(-c3cc(=O)n4cc(N5CCNC6(CC6)C5)ccc4n3)cc(C)c2n1 | 17.5 | – | 36 (≈ 89.7 µM) | 12.7 | 0.0967 | –
CN(CCO)C(=O)c1ccc(-c2cccc(C(F)(F)F)n2)cc1 | ≤ 4.74 | 54.3 | – | 1.52 | – | –
Cc1ccc(NC(=O)CN(C)C(=O)c2ccccc2F)nc1 | ≤ 4.74 | 103 | 54 (≈ 179 µM) | 1.43 | – | –
CONC(=O)c1ccccc1Nc1cc(Nc2cc(C)nn2C(C)C)ncc1Cl | 66.2 | 262 | 24.2 (≈ 58.4 µM) | – | – | –
O=C(Cc1ccc(F)cc1)NCCn1cccnc1=O | ≤ 4.74 | 22.7 | 63.3 (≈ 230 µM) | 9.23 | – | –
CCc1ccccc1-c1cn(CCc2cnccn2)nn1 | 24.7 | 290 | 27.6 (≈ 99 µM) | 0.783 | – | –
Cc1cc(C(=O)Nc2ncccc2C)c2ccccc2n1 | 13.7 | 58.3 | 44 (≈ 159 µM) | – | – | –
O=C(NCc1ccccn1)c1ccc(F)cc1Cl | ≤ 4.74 | ≤ 10.7 | 39.2 (≈ 148 µM) | 0.596 | – | –
Fc1cc(-c2ccncc2)ccc1CNc1ncccn1 | 24.4 | 238 | – | 0.843 | – | –
Cc1cnc(NC(=O)Cc2coc3cc(C)c(C)cc23)s1 | – | – | 0.32 (≈ 1.07 µM) | – | – | –
O=C(NCCc1ccc(F)cc1)n1ccnc1 | 39.7 | 95.6 | – | – | – | –
O=C(NCc1ccc(O)c(O)c1)c1ccc2ccccc2n1 | ≤ 4.74 | 315 | 55.4 (≈ 188 µM) | – | – | –
N#CCCn1nc(C(F)(F)F)cc1O | – | – | 23.1 (≈ 113 µM) | – | – | –
O=C(O)C1CN(Cc2ccc(OCc3ccc(Cl)c(Cl)c3)cc2)C1 | ≤ 4.74 | ≤ 10.7 | – | 4.1 | – | –
Cc1cc(N2CCN(CC3CCN(C(=O)CC(C)C)CC3)CC2)n[nH]1 | 7.34 | ≤ 10.7 | – | 9.48 | – | –
OC(CNCc1ccc(OCc2cccs2)cc1)c1ccccc1 (stereo not drawn) | – | – | 42.9 (≈ 126 µM) | – | – | –

Second part, the compound after the results:

intrinsic clearance, human liver microsomes [mL/min/kg] | intrinsic clearance, rat liver microsomes [mL/min/kg] | aqueous solubility [µg/mL] | MDR1-MDCK efflux ratio | fraction unbound, human plasma | fraction unbound, rat plasma | Compound
≤ 4.74 | 110 | – | 4.78 | – | – | COc1cc(OC)c(OC)cc1CNC(C)(C)C
32.1 | 999 | 49.1 (≈ 132 µM) | 22.3 | – | – | CC(C)c1nc(O)c2nnn(C[C@@H]3CCCN(Cc4cccs4)C3)c2n1
≤ 4.74 | 48.3 | 39 (≈ 90.4 µM) | 0.928 | – | – | COc1cc(OC)cc(-c2nnc(SCC(=O)Nc3cccc(C(=O)O)c3)s2)c1
69.5 | 115 | 19.4 (≈ 43.1 µM) | 2.48 | – | – | CC(C)n1cc(-c2ccc3c(c2)N(C)CC3)c2c(NS(=O)(=O)c3ccn(C)n3)ccnc21
≤ 4.74 | 97.6 | 2.04 (≈ 6.07 µM) | 0.9 | – | – | Cc1ccc(C(=O)NC2CCN(CC#N)CC2)cc1Br
68.3 | 707 | 22.1 (≈ 49 µM) | 9.7 | – | – | COc1cc2c(cc1OC)CN(C(=O)C1CCCN(S(=O)(=O)c3cccs3)C1)CC2 (stereo not drawn)
52.6 | 656 | – | 0.493 | – | – | OC1CCN(c2nccc(-c3cccs3)n2)CC1
31.9 | 1090 | 50.4 (≈ 162 µM) | – | 0.173 | 0.156 | Cn1c(C2CC2)nc2c1CCN(c1ncnc3ccsc13)C2
8.55 | 69.1 | – | 78.1 | – | – | COc1nc2c(cc1CNC(=O)N1CCC[C@@H]1CO)C(=O)N(C1CCCC1)C2
19.9 | 1100 | 33.2 (≈ 95.7 µM) | 1.18 | – | – | O=c1c2c(nc3ccccn13)CCN(S(=O)(=O)C1CCCCC1)C2
≤ 4.74 | 12.2 | 43.3 (≈ 160 µM) | 20.8 | – | – | O=C(NCc1nncn1-c1ccccc1)C1CCCC1
38.2 | 218 | – | 28.7 | 0.0128 | 0.00864 | CCOc1cc(CC(=O)N[C@@H](CC(C)C)c2ccccc2N2CCCCC2)ccc1C(=O)O
97.7 | 2140 | – | 1.03 | – | – | CC1=CCN(C(=O)c2cc(C)nc3cc(C)cc(C)c23)CC1
4.94 | ≤ 10.7 | 56.8 (≈ 153 µM) | 28.4 | – | – | CN1CCC(NS(=O)(=O)C2CN(C(=O)c3cccc(Cl)c3)C2)CC1
98 | 1240 | 26.2 (≈ 77.7 µM) | 0.759 | – | – | COc1ccc(-c2noc([C@@H]3CCCN3Cc3cccnc3)n2)cn1
68.7 | 260 | 39.9 (≈ 103 µM) | 26.5 | – | – | c1cc2c(N3CCNCC3)nc(-c3ccnc(NC4CCCCC4)c3)cc2cn1
58.1 | 477 | – | 2.19 | – | – | Cc1cc(C(=O)NCC2CCN(c3ccc4ccccc4n3)CC2)cnc1C
997 | 2710 | – | 1.46 | 0.00787 | 0.0139 | CN(C)C(=O)C1(Cc2ccccc2-c2cccc(F)c2)CCN(C(=O)C2CC=CCC2)CC1 (stereo not drawn)
